Test results reported in US11174268B2, “Benzenesulfonamide compouds and their use as therapeutic agents” (Xenon Pharmaceuticals Inc., priority 2016, dated 2021).
Structures can show the parent of a compound that is named as a salt.

Tests used:
NaV1.6 [1] = target: T1, NaV1.6 (Homo sapiens (Human), UniProt Q9UQD0); experiment: Electrophysiological Assay (EP), patch voltage clamp, NaV1.6; format: cell-based; settings: HEK-293 cells, whole-cell patch clamp;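 note: sodium current recorded at ambient temperature, channels held inactivated then briefly repolarized to −150 mV for 20 ms before a test pulse, control currents in 0.5% DMSO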
T1 sequence (Q9UQD0 whole entry): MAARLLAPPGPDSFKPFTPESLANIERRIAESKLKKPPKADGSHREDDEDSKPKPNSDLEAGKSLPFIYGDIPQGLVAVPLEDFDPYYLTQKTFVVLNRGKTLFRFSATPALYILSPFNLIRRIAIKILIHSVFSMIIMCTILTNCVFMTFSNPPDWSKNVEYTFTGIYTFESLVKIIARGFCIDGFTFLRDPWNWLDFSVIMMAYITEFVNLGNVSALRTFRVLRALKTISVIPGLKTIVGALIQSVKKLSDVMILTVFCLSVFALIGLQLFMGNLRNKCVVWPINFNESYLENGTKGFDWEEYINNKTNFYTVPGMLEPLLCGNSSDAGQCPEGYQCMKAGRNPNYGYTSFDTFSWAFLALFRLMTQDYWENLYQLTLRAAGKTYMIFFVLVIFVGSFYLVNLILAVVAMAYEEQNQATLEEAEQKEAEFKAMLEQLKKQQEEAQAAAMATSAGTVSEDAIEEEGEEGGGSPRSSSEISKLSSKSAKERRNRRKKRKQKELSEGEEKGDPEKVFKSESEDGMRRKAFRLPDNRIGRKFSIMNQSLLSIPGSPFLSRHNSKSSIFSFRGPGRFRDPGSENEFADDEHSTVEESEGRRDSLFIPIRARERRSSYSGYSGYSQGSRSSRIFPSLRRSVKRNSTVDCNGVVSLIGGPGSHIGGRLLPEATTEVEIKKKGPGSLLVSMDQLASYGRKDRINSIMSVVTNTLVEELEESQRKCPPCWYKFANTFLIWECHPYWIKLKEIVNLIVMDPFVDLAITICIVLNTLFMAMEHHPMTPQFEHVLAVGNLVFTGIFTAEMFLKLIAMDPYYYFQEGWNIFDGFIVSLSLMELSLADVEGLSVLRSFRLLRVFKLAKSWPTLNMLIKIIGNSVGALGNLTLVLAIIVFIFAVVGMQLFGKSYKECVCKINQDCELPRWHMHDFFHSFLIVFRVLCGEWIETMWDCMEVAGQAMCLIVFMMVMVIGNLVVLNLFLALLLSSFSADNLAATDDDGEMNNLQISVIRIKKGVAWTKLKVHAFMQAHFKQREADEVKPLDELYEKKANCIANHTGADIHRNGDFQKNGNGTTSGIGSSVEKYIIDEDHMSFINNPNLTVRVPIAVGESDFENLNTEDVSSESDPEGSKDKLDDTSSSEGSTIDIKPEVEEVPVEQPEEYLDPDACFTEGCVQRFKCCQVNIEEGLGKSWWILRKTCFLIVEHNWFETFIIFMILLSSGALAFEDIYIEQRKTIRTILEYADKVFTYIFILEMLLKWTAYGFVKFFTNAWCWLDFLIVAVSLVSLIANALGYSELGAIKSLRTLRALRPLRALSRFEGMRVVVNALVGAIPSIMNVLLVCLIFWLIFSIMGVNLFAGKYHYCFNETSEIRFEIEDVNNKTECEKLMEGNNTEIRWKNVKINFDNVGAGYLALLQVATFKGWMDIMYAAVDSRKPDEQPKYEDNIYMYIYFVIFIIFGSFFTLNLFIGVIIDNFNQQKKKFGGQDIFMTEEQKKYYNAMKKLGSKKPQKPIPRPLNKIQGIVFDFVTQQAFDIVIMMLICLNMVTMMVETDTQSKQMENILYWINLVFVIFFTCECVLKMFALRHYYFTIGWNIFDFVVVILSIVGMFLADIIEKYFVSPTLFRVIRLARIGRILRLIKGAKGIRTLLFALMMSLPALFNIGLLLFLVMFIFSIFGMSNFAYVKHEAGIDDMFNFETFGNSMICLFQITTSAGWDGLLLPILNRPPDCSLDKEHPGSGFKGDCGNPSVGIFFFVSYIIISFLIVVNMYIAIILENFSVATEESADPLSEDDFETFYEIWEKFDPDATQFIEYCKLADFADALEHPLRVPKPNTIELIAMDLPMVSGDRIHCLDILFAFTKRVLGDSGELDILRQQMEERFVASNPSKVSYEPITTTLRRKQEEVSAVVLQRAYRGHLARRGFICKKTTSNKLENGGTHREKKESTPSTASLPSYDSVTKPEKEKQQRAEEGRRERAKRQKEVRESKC

NaV1.6 [2] = target: T1, NaV1.6; experiment: Sodium Influx Assay (Flux), NaV1.6; format: cell-based; settings: Trex HEK293 cells, ANG2 dye, inactivated state;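 note: Tetracycline-induced cells, compounds applied for one hour at room temperature with modulators holding channels open, IC50 from percent inhibition of sodium influx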
NaV1.5 = NaV1.5 (Homo sapiens (Human), UniProt Q14524); experiment: Sodium Influx Assay (Flux), NaV1.5; settings: read-out: Flux NaV1.5 IC50; Trex HEK293 cells, ANG2 dye, inactivated state
Sequence of NaV1.5 (Q14524 other isoform, or with tags, fused parts or gaps): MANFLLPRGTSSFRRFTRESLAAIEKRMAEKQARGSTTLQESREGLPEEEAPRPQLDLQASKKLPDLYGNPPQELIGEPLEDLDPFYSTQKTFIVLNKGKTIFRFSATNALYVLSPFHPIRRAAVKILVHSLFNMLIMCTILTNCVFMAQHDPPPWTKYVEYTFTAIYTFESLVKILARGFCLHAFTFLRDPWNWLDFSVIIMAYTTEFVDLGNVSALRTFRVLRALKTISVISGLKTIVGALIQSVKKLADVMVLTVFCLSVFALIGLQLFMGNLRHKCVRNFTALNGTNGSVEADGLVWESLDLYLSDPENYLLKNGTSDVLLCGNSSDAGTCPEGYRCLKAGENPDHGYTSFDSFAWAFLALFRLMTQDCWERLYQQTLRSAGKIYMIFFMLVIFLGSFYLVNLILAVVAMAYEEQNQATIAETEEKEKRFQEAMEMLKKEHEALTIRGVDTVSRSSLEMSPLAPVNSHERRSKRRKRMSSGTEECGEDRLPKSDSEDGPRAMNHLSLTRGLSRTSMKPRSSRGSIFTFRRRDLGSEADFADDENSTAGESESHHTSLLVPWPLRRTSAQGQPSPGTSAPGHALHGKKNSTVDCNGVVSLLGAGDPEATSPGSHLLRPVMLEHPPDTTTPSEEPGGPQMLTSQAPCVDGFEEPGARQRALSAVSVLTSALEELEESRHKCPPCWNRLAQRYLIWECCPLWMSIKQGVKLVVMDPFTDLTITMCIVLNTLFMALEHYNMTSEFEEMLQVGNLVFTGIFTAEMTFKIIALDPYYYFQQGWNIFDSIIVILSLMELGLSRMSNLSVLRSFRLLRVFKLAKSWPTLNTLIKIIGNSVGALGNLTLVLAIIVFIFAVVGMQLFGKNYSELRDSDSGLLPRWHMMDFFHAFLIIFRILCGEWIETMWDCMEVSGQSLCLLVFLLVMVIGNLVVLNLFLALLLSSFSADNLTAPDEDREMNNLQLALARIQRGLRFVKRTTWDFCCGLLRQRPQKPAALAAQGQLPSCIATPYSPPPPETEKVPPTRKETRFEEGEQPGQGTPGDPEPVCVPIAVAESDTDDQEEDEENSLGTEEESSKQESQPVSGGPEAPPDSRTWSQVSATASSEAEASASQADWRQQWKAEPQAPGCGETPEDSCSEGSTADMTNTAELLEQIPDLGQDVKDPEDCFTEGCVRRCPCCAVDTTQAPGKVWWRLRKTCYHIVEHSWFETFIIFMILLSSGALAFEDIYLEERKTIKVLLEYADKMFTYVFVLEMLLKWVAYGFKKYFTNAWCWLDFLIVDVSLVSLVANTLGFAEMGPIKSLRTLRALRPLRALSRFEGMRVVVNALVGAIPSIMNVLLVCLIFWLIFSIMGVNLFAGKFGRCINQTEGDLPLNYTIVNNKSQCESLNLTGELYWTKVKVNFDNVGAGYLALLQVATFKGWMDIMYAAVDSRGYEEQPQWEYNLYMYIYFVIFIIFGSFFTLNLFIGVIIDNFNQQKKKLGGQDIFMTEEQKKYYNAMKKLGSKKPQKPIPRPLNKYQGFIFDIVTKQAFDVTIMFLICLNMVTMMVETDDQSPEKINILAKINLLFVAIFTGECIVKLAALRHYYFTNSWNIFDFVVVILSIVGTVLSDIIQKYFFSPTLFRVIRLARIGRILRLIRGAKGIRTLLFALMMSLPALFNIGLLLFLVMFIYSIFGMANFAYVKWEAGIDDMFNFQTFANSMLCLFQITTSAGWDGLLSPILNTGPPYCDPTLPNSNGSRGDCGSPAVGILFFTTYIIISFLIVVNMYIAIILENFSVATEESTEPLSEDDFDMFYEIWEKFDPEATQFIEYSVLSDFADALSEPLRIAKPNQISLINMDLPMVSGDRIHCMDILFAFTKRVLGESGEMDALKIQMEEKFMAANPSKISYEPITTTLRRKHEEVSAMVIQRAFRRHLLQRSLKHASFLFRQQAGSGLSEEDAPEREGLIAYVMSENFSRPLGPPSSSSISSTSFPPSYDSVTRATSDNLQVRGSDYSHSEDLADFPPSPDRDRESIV

NaV1.1 [3] = target: T2, NaV1.1 (Homo sapiens (Human), UniProt P35498); experiment: Sodium Influx Assay (Flux), NaV1.1; format: cell-based; settings: Trex HEK293 cells, ANG2 dye, inactivated state;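 note: channels co-expressed with human β1 subunit and held open by modulators, cells exposed to compounds for one hour at room temperature, IC50 from percent inhibition of influx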
NaV1.1 [4] = target: T2, NaV1.1; experiment: Electrophysiological Assay (EP), patch voltage clamp, NaV1.1; format: cell-based; settings: HEK-293 cells, whole-cell patch clamp;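 note: sodium current block measured at ambient temperature, holding at fully inactivating potential, 20 ms repolarization to −150 mV before test pulse, versus 0.5% DMSO control currents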

Structure (SMILES) | IC50 (NaV1.6 [1]) [µM] | IC50 (NaV1.6 [2]) [µM] | IC50 (NaV1.5) [µM] | IC50 (NaV1.1 [3]) [µM] | IC50 (NaV1.1 [4]) [µM]
C[C@H](Oc1cc(F)c(S(=O)(=O)Nc2nccs2)cc1F)c1ccccc1F [Example 26, (S)-2,5-difluoro-4-(1-(2-fluorophenyl)ethoxy)-N-(thiazol-2-yl)benzenesulfonamide] | 0.113 | 0.742 | 3.45 | 4.74 | 6.75
O=S(=O)(Nc1nccs1)c1cc(Cl)c(NC2(c3ccccc3)CC2)cc1F [Example 43, 5-chloro-2-fluoro-4-((1-phenylcyclopropyl)amino)-N-(thiazol-2-yl)benzenesulfonamide] | 0.028 | 0.191 | 11.1 | 2.14 | 4.1
C[C@H](Nc1ccc(S(=O)(=O)Nc2nccs2)cc1Cl)c1ccccc1F [Example 79, (S)-3-chloro-4-((1-(2-fluorophenyl)ethyl)amino)-N-(thiazol-2-yl)benzenesulfonamide] | 0.039 | 0.237 | 2.55 | 1.54 | 4.41
C[C@H](Oc1cc(F)c(S(=O)(=O)Nc2cscn2)cc1Cl)c1c(F)cccc1F [Example 120, (S)-5-chloro-4-(1-(2,6-difluorophenyl)ethoxy)-2-fluoro-N-(thiazol-4-yl)benzenesulfonamide] | 0.717 | 1.39 | 2.42 | 24.3 | 10
O=S(=O)(Nc1nccs1)c1cc(Cl)c(N[C@H](CN2CCCC2)c2ccccc2)cc1F [Example 70, (S)-5-chloro-2-fluoro-4-((1-phenyl-2-(pyrrolidin-1-yl)ethyl)amino)-N-(thiazol-2-yl)benzenesulfonamide] | 0.036 | 0.181 | 30 | 30 | 10
C[C@H](Nc1cc(F)c(S(=O)(=O)Nc2cscn2)c(F)c1)c1cc(Cl)ccc1F [Example 207, (S)-4-((1-(5-chloro-2-fluorophenyl)ethyl)amino)-2,6-difluoro-N-(thiazol-4-yl)benzenesulfonamide 2,2,2-trifluoroacetate] | 0.121 | 0.413 | 9.57 | 4.38 | 8.13
C[C@H](Nc1cc(F)c(S(=O)(=O)Nc2nccs2)cc1Cl)C1CCCCC1 [Example 42, (S)-5-chloro-4-((1-cyclohexylethyl)amino)-2-fluoro-N-(thiazol-2-yl)benzenesulfonamide] | 0.305 | 3.03 | 14.4 | 5.65 | 6.77
C[C@H](Oc1ccc(S(=O)(=O)Nc2nccs2)c(F)c1Cl)c1ccccc1F [Example 10, (S)-3-chloro-2-fluoro-4-(1-(2-fluorophenyl)ethoxy)-N-(thiazol-2-yl)benzenesulfonamide] | 0.128 | 0.461 | 2.35 | 1.63 | 5.47
CC[C@@H](Nc1cc(F)c(S(=O)(=O)Nc2nccs2)cc1Cl)c1ccccc1 [Example 39, (R)-5-chloro-2-fluoro-4-((1-phenylpropyl)amino)-N-(thiazol-2-yl)benzenesulfonamide] | 0.285 | 0.791 | 6.81 | 2.35 | 1.85
O=S(=O)(Nc1nccs1)c1ccc(N[C@H](c2ccccc2)C(F)(F)F)c(Cl)c1 [Example 4, (R)-3-chloro-N-(thiazol-2-yl)-4-((2,2,2-trifluoro-1-phenylethyl)amino)benzenesulfonamide formate] | 0.041 | 0.794 | 7.01 | 3.4 | 5.31
CN(C)CC(Nc1cc(F)c(S(=O)(=O)Nc2nccs2)cc1Cl)c1ccccc1 (centres unmarked) [Example 63, 5-Chloro-4-((2-(dimethylamino)-1-phenylethyl)amino)-2-fluoro-N-(thiazol-2-yl)benzenesulfonamide 2,2,2-trifluoroacetate] | 0.066 | 0.392 | 30 | 14.1 | 10
CC[C@H](Nc1cc(F)c(S(=O)(=O)Nc2nccs2)cc1Cl)c1ccccc1C [Example 54, (S)-5-chloro-2-fluoro-N-(thiazol-2-yl)-4-((1-(o-tolyl)propyl)amino)benzenesulfonamide] | 0.025 | 0.265 | 13.5 | 3.24 | 1.02
CC[C@H](Nc1cc(F)c(S(=O)(=O)Nc2ncc(F)s2)cc1Cl)c1ccccc1 [Example 265, (S)-5-chloro-2-fluoro-N-(5-fluorothiazol-2-yl)-4-((1-phenylpropyl)amino)benzenesulfonamide] | 0.018 | 0.194 | 12.5 | 0.794 | 0.05
O=S(=O)(Nc1ccncn1)c1cc(Cl)c(N[C@H](c2cc(Cl)ccc2F)C(F)(F)F)cc1F [Example 270, (R)-5-chloro-4-((1-(5-chloro-2-fluorophenyl)-2,2,2-trifluoroethyl)amino)-2-fluoro-N-(pyrimidin-4-yl)benzenesulfonamide] | 0.018 | 0.213 | 11 | 12.5 | 10
O=S(=O)(Nc1cscn1)c1cc(Cl)c(N[C@H](c2cc(F)ccc2F)C(F)F)cc1F [Example 335, (R)-5-chloro-4-((1-(2,5-difluorophenyl)-2,2-difluoroethyl)amino)-2-fluoro-N-(thiazol-4-yl)benzenesulfonamide] | 0.085 | 0.385 | 21.2 | 4.79 | 10
O=S(=O)(Nc1nccs1)c1cc(Cl)c(N[C@@H](CN2CCC2)c2ccccc2)cc1F [Example 66, (R)-4-((2-(azetidin-1-yl)-1-phenylethyl)amino)-5-chloro-2-fluoro-N-(thiazol-2-yl)benzenesulfonamide 2,2,2-trifluoroacetate] | 1.11 | 1.01 | 30 | 0.908 | 10
O=S(=O)(Nc1nccs1)c1cc(Cl)c(NCc2ccccc2CN2CCC2)cc1F [Example 16, 4-((2-(azetidin-1-ylmethyl)benzyl)amino)-5-chloro-2-fluoro-N-(thiazol-2-yl)benzenesulfonamide 2,2,2-trifluoroacetate] | 0.004 | 0.029 | 23.5 | 5.41 | 2.19
O=S(=O)(Nc1cccc(F)n1)c1cc(Cl)c(N[C@H](CN2CCCC2)c2ccccc2)cc1F [Example 72, (S)-5-chloro-2-fluoro-N-(6-fluoropyridin-2-yl)-4-((1-phenyl-2-(pyrrolidin-1-yl)ethyl)amino)benzenesulfonamide 2,2,2-trifluoroacetate] | 0.955 | 7.11 | 30 | 30 | 10
O=S(=O)(Nc1nccs1)c1ccc(N[C@@H](CO)c2ccccc2)c(Cl)c1 [Example 91, (R)-3-chloro-4-((2-hydroxy-1-phenylethyl)amino)-N-(thiazol-2-yl)benzenesulfonamide] | 0.341 | 0.927 | 30 | 10.7 | 10
